Measured values: the supplement of paper PMC13380429

Key:
Conditions in all cases: 72 h
[1] = test system: Caco-2; assay: drug sensitivity score (DSS) for viability; higher = more toxic; extreme values may be limits of the assay
[2] = test system: Calu-3; assay: as above
[3] = test system: HepG2; assay: as above
[4] = test system: U2OS; assay: as above
[5] = test system: Vero E6; assay: as above
[6] = test system: Caco-2; assay: cell viability relative to DMSO; higher = less toxic
[7] = test system: Calu-3; assay: as above
[8] = test system: HepG2; assay: as above
[9] = test system: U2OS; assay: as above
[10] = test system: Vero E6; assay: as above
[11] = test system: Caco-2; assay: relative viability EC50 (midpoint between 100% and the lowest measured viability); higher = less toxic
[12] = test system: Calu-3; assay: as above
[13] = test system: HepG2; assay: as above
[14] = test system: U2OS; assay: as above
[15] = test system: Vero E6; assay: as above

| SMILES | drug sensitivity score [1] | drug sensitivity score [2] | drug sensitivity score [3] | drug sensitivity score [4] | drug sensitivity score [5] | cell viability ([6]; 1 nM) [%] | cell viability ([6]; 10 nM) [%] | cell viability ([6]; 100 nM) [%] | cell viability ([6]; 1000 nM) [%] | cell viability ([6]; 10000 nM) [%] | cell viability ([7]; 1 nM) [%] | cell viability ([7]; 10 nM) [%] | cell viability ([7]; 100 nM) [%] | cell viability ([7]; 1000 nM) [%] | cell viability ([7]; 10000 nM) [%] | cell viability ([8]; 1 nM) [%] | cell viability ([8]; 10 nM) [%] | cell viability ([8]; 100 nM) [%] | cell viability ([8]; 1000 nM) [%] | cell viability ([8]; 10000 nM) [%] | cell viability ([9]; 1 nM) [%] | cell viability ([9]; 10 nM) [%] | cell viability ([9]; 100 nM) [%] | cell viability ([9]; 1000 nM) [%] | cell viability ([9]; 10000 nM) [%] | cell viability ([10]; 1 nM) [%] | cell viability ([10]; 10 nM) [%] | cell viability ([10]; 100 nM) [%] | cell viability ([10]; 1000 nM) [%] | cell viability ([10]; 10000 nM) [%] | relative viability EC50 [11] [µM] | relative viability EC50 [12] [µM] | relative viability EC50 [13] [µM] | relative viability EC50 [14] [µM] | relative viability EC50 [15] [µM] |
| --- | --- | --- | --- | --- | --- | --- | --- | --- | --- | --- | --- | --- | --- | --- | --- | --- | --- | --- | --- | --- | --- | --- | --- | --- | --- | --- | --- | --- | --- | --- | --- | --- | --- | --- | --- |
| CC(C)(C)NS(=O)(=O)c1cncc(-c2cc(F)c3nc(N)nn3c2)c1 | 0 | 0 | 0 | 0 | 0 | 95.6 | 91.8 | 106 | 87.7 | 107 | 96.1 | 82.5 | 95.2 | 84.2 | 97.1 | 94.7 | 106 | 90.7 | 101 | 105 | 98.5 | 92.5 | 97.9 | 95.8 | 95.9 | 93.5 | 99.3 | 94 | 96.3 | 100 | > 10 | > 10 | > 10 | > 10 | > 10 |
| CC(C)(N)c1nc(-c2ccc(OC(F)(F)F)cc2)c[nH]1 | 0.1 | 0 | 0 | 0 | 0 | 95.8 | 96.5 | 91.3 | 92 | 88 | 107 | 102 | 90.1 | 105 | 113 | 96 | 107 | 101 | 117 | 104 | 98.2 | 94.1 | 96.5 | 95.6 | 95.4 | 95.9 | 97.7 | 94.6 | 94.9 | 107 | > 10 | > 10 | > 10 | > 10 | > 10 |
| CC(C)C1=C2[C@H]3CC[C@@H]4[C@@]5(C)CC[C@H](OC(=O)CC(C)(C)C(=O)O)C(C)(C)[C@@H]5CC[C@@]4(C)[C@]3(C)CC[C@@]2([C@@H](O)CN(CCN(C)C)Cc2ccc(Cl)cc2)CC1=O | 0 | 0 | 0 | 0 | 0 | 96.3 | 98.7 | 97.7 | 100 | 97.2 | 95.7 | 91.8 | 106 | 104 | 105 | 96.7 | 105 | 100 | 99.6 | 95.4 | 95.3 | 97.8 | 94.3 | 94.9 | 94.2 | 102 | 106 | 106 | 99.5 | 105 | > 10 | > 10 | > 10 | > 10 | > 10 |
| CCC(CC)Nc1cc(C)nc(Oc2c(C)cc(C)cc2C)c1C | 0 | 0 | 0 | 0 | 0 | 90.2 | 96.6 | 101 | 99.9 | 100 | 94.3 | 94.5 | 98.6 | 96.5 | 100 | 94.9 | 104 | 93.1 | 108 | 103 | 104 | 95.7 | 102 | 98.5 | 97 | 96.8 | 96.1 | 90.1 | 94.3 | 109 | > 10 | > 10 | > 10 | > 10 | > 10 |
| CCCCOc1c(C(=O)c2c(F)cc(C)cc2F)c[nH]c2nncc1-2 | 2.7 | 0 | 2.9 | 0 | 1.6 | 104 | 102 | 94 | 82.9 | 77.7 | 94.9 | 86.1 | 71.1 | 60.7 | 89.4 | 96.7 | 99.8 | 95.1 | 81.4 | 80.8 | 98 | 101 | 102 | 113 | 95.6 | 102 | 97.4 | 94.1 | 84.5 | 84.9 | > 10 | > 10 | > 10 | > 10 | > 10 |
| CCCCn1c(-c2ccccc2)nc(-c2ccccc2)c1CN(Cc1ccc2c(c1)OCO2)Cc1ccc2c(c1)OCO2 | 1.2 | 0 | 0 | 0.2 | 0 | 94.2 | 105 | 95.1 | 92.7 | 77.5 | 107 | 102 | 107 | 101 | 96.7 | 102 | 102 | 96.3 | 95.5 | 89.4 | 95.8 | 97.6 | 91.4 | 94 | 85.6 | 106 | 101 | 100 | 101 | 97.7 | > 10 | > 10 | > 10 | > 10 | > 10 |
| CN(C)c1cccc(-c2c3c(=O)n(-c4ccccc4Cl)[nH]c3cc(=O)n2C)c1 | 0.8 | 0 | 0 | 0 | 0 | 100 | 98.3 | 101 | 93.1 | 84.6 | 89.9 | 91.3 | 100 | 97.7 | 92.6 | 99.2 | 104 | 94.2 | 97.2 | 87.6 | 99.8 | 96.6 | 101 | 95.2 | 93.7 | 101 | 104 | 99.6 | 102 | 104 | > 10 | > 10 | > 10 | > 10 | > 10 |
| COC(=O)[C@H](Cc1ccc([N+](=O)[O-])cc1)NC(=O)c1cccc2ccccc12 | 0 | 0 | 0 | 0 | 0 | 99.8 | 98.7 | 99.4 | 95.6 | 89 | 101 | 95.8 | 92.8 | 100 | 109 | 102 | 97.1 | 105 | 101 | 107 | 94.2 | 99 | 96.6 | 99.5 | 100 | 94.4 | 96.7 | 90.8 | 87.4 | 101 | > 10 | > 10 | > 10 | > 10 | > 10 |
| COc1c(C)c(C(=O)c2ccc(N)c(C(=O)O)c2)n2ccccc12 | 0 | 0 | 0 | 0 | 0 | 89.7 | 88.7 | 87.1 | 100 | 106 | 96.6 | 102 | 96 | 98.2 | 103 | 100 | 108 | 101 | 93.4 | 119 | 99.9 | 99.2 | 96.9 | 98.9 | 90.4 | 99.9 | 98.7 | 99.4 | 100 | 106 | > 10 | > 10 | > 10 | > 10 | > 10 |
| COc1cc(N)c(Cl)cc1C(=O)CCC1CCN(CCNS(C)(=O)=O)CC1 | 0 | 0 | 0.3 | 0 | 0 | 95.1 | 97.3 | 95.5 | 92.3 | 92.3 | 99.6 | 92.6 | 88.3 | 99.1 | 95.9 | 100 | 100 | 98.2 | 89 | 95.5 | 92.6 | 101 | 94.2 | 99.2 | 92.6 | 99.7 | 101 | 100 | 93.9 | 98.3 | > 10 | > 10 | > 10 | > 10 | > 10 |
| COc1ccccc1CN[C@H]1CCCN[C@H]1c1ccccc1 | 0 | 0 | 0 | 0 | 0 | 107 | 92.7 | 109 | 98.9 | 104 | 93.7 | 93.6 | 93.7 | 104 | 98.7 | 94.2 | 103 | 91.1 | 99.6 | 94.2 | 99 | 94.6 | 96.2 | 93.1 | 97.4 | 101 | 103 | 98 | 105 | 92.1 | > 10 | > 10 | > 10 | > 10 | > 10 |
| Cc1nc2ccccc2c(-c2ccc3c4c(ccnc24)CCO3)c1[C@H](OC(C)(C)C)C(=O)O | 0 | 0 | 0.1 | 0 | 0 | 109 | 98.1 | 110 | 113 | 113 | 88.3 | 102 | 85.5 | 109 | 105 | 103 | 84.3 | 95.2 | 94.4 | 87.1 | 97.6 | 97.2 | 99 | 101 | 99.1 | 111 | 99.3 | 102 | 101 | 95.2 | > 10 | > 10 | > 10 | > 10 | > 10 |
| Cn1ccc2cc(NC(=O)Nc3cccnc3)ccc21 | 0.2 | 0 | 0 | 0 | 0 | 100 | 97.9 | 88.7 | 84.5 | 95.8 | 108 | 97.6 | 98.1 | 94.9 | 98 | 91.5 | 102 | 92.3 | 95.8 | 97.2 | 105 | 98.8 | 101 | 97.1 | 100 | 105 | 102 | 103 | 97.7 | 103 | > 10 | > 10 | > 10 | > 10 | > 10 |
| O=C(O)[C@H]1CC[C@H](c2cc3cccnc3c(-c3cccc(F)c3)n2)CC1 | 0 | 0 | 0 | 0 | 0.2 | 102 | 103 | 108 | 98 | 109 | 112 | 95.1 | 91.1 | 95 | 107 | 96.3 | 98.9 | 101 | 92.2 | 90.1 | 104 | 98.4 | 96.9 | 96.5 | 99.6 | 101 | 99.3 | 96.3 | 99 | 86.3 | > 10 | > 10 | > 10 | > 10 | > 10 |
